In patent US20120046302A1, “METHODS OF TREATING CNS DISORDERS” (priority 2008, published 2012):
Where a name gives a salt, the structure may show the parent alone.

What was measured:
[1] = tested on: patients with bipolar I disorder experiencing a manic or mixed episode; test: Multicenter, open-label study of memantine hydrochloride in acute treatment of hospitalized patients with bipolar I disorder (Example 1); assay type: in vivo, human; details: for MRS Total Score, Change at Day 21 (LOCF), Mean ± SEM / YMRS Total Score, Change at Day 21 (LOCF), Mean ± SEM / MRS Total Score, Change at Day 21 (OC), Mean ± SEM / YMRS Total Score, Change at Day 21 (OC), Mean ± SEM / CGI-I Rating, Day 21, Mean ± SEM / CGI-S Rating, Change at Day 21, Mean ± SEM / MADRS Total Score, Change at Day 21, Mean ± SEM / PANSS Total Score, Change at Day 21, Mean ± SEM / PANSS-EC Score, Change at Day 21, Mean ± SEM: 21 days; for MRS Total Score, Change at Day 21 (LOCF), Mean ± SEM / YMRS Total Score, Change at Day 21 (LOCF), Mean ± SEM / CGI-I Rating, Day 21, Mean ± SEM / CGI-S Rating, Change at Day 21, Mean ± SEM / MADRS Total Score, Change at Day 21, Mean ± SEM / PANSS Total Score, Change at Day 21, Mean ± SEM / PANSS-EC Score, Change at Day 21, Mean ± SEM / MRS Response, % of patients / MRS Response, n of patients / YMRS Response, % of patients / YMRS Response, n of patients: ITT; for MRS Total Score, Change at Day 21 (OC), Mean ± SEM / YMRS Total Score, Change at Day 21 (OC), Mean ± SEM: observed cases; for CGI-I Rating, Day 21, Mean ± SEM / CGI-S Rating, Change at Day 21, Mean ± SEM / MADRS Total Score, Change at Day 21, Mean ± SEM / PANSS Total Score, Change at Day 21, Mean ± SEM / PANSS-EC Score, Change at Day 21, Mean ± SEM / MRS Response, % of patients / MRS Response, n of patients / YMRS Response, % of patients / YMRS Response, n of patients: LOCF; for MRS Response, % of patients / MRS Response, n of patients / YMRS Response, % of patients / YMRS Response, n of patients: Day 21, response = ≧50% reduction in total score from baseline
From the text: The entrance criteria for the patients included: Hospitalized adult inpatients, with bipolar I disorder by DSM-IV-TR criteria • Manic or mixed episode: ≧20 on the Young Mania Rating Scale (YMRS), with and without psychotic features; • Diagnosis based on clinical evaluation and confirmed using the Structured Clinical Interview for DSM Disorders. The following comorbid psychiatric diagnoses were allowed to enroll: Attention deficit hyperactivity disorder [ADHD], conduct disorder, obsessive-compulsive disorder, anxiety disorders, and substance abuse. Additional psychotropic medications were not allowed. Patients were assigned to 21-days of treatment in one of three groups: Group 1, 20 mg memantine hydrochloride per day (range 20-30 mg memantine per day); Group 2, 30 mg memantine hydrochloride per day (range 20-40 mg memantine per day); Group 3, 40 mg memantine hydrochloride per day (range 30-50 mg memantine per day). […] Dose modification was continued to study completion or early termination. Efficacy measures included the Young Mania Rating Scale (YMRS) and the Mania Rating Scale (MRS) (≧50% reduction in total score from baseline). The change from baseline was also assessed using the Positive and Negative Syndrome Scale (PANSS) in patients with psychiatric symptoms, Positive and Negative Syndrome Scale-Excited Component (PANSS-EC), Clinical Global Impression Severity (CGI-S) and Improvement (CGI-I) scores, and the change from baseline in the Montgomery Asberg Depression Rating Scale (MADRS). […] The mean duration of treatment was 16.1 days (Group I), 14.7 days (Group 2) and 17.3 days (Group 3).

[2] = biological target: histamine H1 (Homo sapiens, UniProt P35367); details: background; cited from earlier work
[3] = biological target: T1, 5-HT2C (Homo sapiens, UniProt P28335); details: background; cited from earlier work
T1 sequence (P28335 33-458): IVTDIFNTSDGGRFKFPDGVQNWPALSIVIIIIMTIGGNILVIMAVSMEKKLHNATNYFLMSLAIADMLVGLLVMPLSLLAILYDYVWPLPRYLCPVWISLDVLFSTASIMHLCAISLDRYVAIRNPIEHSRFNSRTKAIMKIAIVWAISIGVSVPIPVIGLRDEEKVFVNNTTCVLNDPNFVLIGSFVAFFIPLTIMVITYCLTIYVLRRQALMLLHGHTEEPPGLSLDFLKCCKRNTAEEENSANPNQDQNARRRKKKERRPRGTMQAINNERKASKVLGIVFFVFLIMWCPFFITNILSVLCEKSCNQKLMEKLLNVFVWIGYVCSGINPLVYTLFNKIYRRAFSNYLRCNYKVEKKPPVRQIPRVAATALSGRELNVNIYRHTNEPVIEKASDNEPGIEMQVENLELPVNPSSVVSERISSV

[4] = tested on: adrenergic receptor sites; details: background; cited from earlier work
[5] = tested on: NMDA receptor; details: noncompetitive NMDA receptor antagonists; background; cited from earlier work
[6] = tested on: ICV ouabain-induced motoric hyperactivity; details: ouabain treated (ICV) versus sham 53.1±SD 50.0; El-Mallakh et al. 2003; cited from earlier work
[7] = Group 1: 20 mg per day (range 20-30 mg), n=12
[8] = Group 1: 20 mg per day (range 20-30 mg), n=6
[9] = Group 2: 30 mg per day (range 20-40 mg), n=11
[10] = Group 2: 30 mg per day (range 20-40 mg), n=6
[11] = Group 3: 40 mg per day (range 30-50 mg), n=10
[12] = Group 3: 40 mg per day (range 30-50 mg), n=8

histamine H1, sequence (P35367 whole entry): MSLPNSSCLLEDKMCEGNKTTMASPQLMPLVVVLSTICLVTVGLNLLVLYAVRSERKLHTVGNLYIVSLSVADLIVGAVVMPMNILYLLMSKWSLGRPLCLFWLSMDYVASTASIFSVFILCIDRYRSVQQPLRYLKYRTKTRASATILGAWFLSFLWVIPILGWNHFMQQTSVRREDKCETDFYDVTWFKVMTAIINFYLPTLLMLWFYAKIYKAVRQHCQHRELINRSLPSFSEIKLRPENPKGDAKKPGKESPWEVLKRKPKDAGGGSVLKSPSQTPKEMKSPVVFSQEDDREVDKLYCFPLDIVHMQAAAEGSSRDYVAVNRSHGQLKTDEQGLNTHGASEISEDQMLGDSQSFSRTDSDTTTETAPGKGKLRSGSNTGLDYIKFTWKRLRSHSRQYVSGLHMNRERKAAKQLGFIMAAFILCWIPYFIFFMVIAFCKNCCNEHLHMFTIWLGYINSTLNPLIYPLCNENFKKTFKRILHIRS

## CC12CC3CC(C)(C1)CC(N)(C3)C2 [memantine hydrochloride]
[1]; [7]
  MRS Total Score, Change at Day 21 (LOCF), Mean ± SEM: −9.8 ± 2.2
  YMRS Total Score, Change at Day 21 (LOCF), Mean ± SEM: −9.5 ± 2.8
[1]; [8]
  MRS Total Score, Change at Day 21 (OC), Mean ± SEM: −15.3 ± 1.7
  YMRS Total Score, Change at Day 21 (OC), Mean ± SEM: −17.0 ± 1.9
[1]; Group 1: 20 mg per day, n=12
  CGI-I Rating, Day 21, Mean ± SEM: 3.3 ± 0.5
  CGI-S Rating, Change at Day 21, Mean ± SEM: −0.8 ± 0.3
  MADRS Total Score, Change at Day 21, Mean ± SEM: −3.4 ± 1.8
  PANSS Total Score, Change at Day 21, Mean ± SEM: −5.1 ± 3.9
  PANSS-EC Score, Change at Day 21, Mean ± SEM: −0.7 ± 1.5
  MRS Response, % of patients: 50.0%
  MRS Response, n of patients: 6 n
  YMRS Response, % of patients: 50.0%
  YMRS Response, n of patients: 6 n
[1]; [9]
  MRS Total Score, Change at Day 21 (LOCF), Mean ± SEM: −7.4 ± 2.6
  YMRS Total Score, Change at Day 21 (LOCF), Mean ± SEM: −6.4 ± 3.8
[1]; [10]
  MRS Total Score, Change at Day 21 (OC), Mean ± SEM: −13.0 ± 2.1
  YMRS Total Score, Change at Day 21 (OC), Mean ± SEM: −15.5 ± 1.5
[1]; Group 2: 30 mg per day, n=11
  CGI-I Rating, Day 21, Mean ± SEM: 3.6 ± 0.5
  CGI-S Rating, Change at Day 21, Mean ± SEM: −0.7 ± 0.4
  MADRS Total Score, Change at Day 21, Mean ± SEM: 0.0 ± 2.7
  PANSS Total Score, Change at Day 21, Mean ± SEM: −1.5 ± 5.8
  PANSS-EC Score, Change at Day 21, Mean ± SEM: −0.5 ± 1.8
  MRS Response, % of patients: 27.3%
  MRS Response, n of patients: 3 n
  YMRS Response, % of patients: 45.5%
  YMRS Response, n of patients: 5 n
[1]; [11]
  MRS Total Score, Change at Day 21 (LOCF), Mean ± SEM: −7.2 ± 2.0
  YMRS Total Score, Change at Day 21 (LOCF), Mean ± SEM: −7.9 ± 2.4
[1]; [12]
  MRS Total Score, Change at Day 21 (OC), Mean ± SEM: −9.3 ± 1.8
  YMRS Total Score, Change at Day 21 (OC), Mean ± SEM: −10 ± 2.3
[1]; Group 3: 40 mg per day, n=10
  CGI-I Rating, Day 21, Mean ± SEM: 2.9 ± 0.5
  CGI-S Rating, Change at Day 21, Mean ± SEM: −0.6 ± 0.3
  MADRS Total Score, Change at Day 21, Mean ± SEM: −3.3 ± 1.7
  PANSS Total Score, Change at Day 21, Mean ± SEM: −7.7 ± 3.8
  PANSS-EC Score, Change at Day 21, Mean ± SEM: −0.7 ± 1.4
  MRS Response, % of patients: 10.0%
  MRS Response, n of patients: 1 n
  YMRS Response, % of patients: 30.0%
  YMRS Response, n of patients: 3 n
[1]; overall conclusion of Example 1
  Effectiveness in the treatment of acute mania associated with bipolar disorder (in words): surprisingly effective

## CN(C)C(=O)N[C@H]1CC[C@H](CCN2CCN(c3cccc(Cl)c3Cl)CC2)CC1 [Cariprazine hydrochloride, trans-1-{4-[2-[4-(2,3-dichlorophenyl)-piperazin-1-yl]-ethyl]-cyclohexyl}-3,3-dimethyl-urea hydrochloride]
[2]
  Potency at histamine H1 receptor site (in words): low potency
[3]
  Potency at 5-HT2C receptor site (in words): low potency
[4]
  Potency at adrenergic receptor sites (in words): low potency

## CC12CC3CC(C)(C1)CC(N)(C3)C2 [Memantine, 1-amino-3,5-dimethyl adamantane]
[5]
  Affinity for the NMDA receptor (in words): moderate affinity

## C[C@@H]1O[C@@H](O[C@H]2C[C@@H](O)[C@]3(CO)[C@H]4[C@H](O)C[C@]5(C)[C@@H](C6=CC(=O)OC6)CC[C@]5(O)[C@@H]4CC[C@]3(O)C2)[C@H](O)[C@H](O)[C@H]1O [ouabain]
[6]
  Open field exploratory activity: 258.7±316.6 squares traversed

## CC1(C)CC(C)(C)CC(C)(N)C1 [neramexane, 1-amino-1,3,3,5,5-pentamethylcyclohexane]
[5]
  Affinity for the NMDA receptor (in words): moderate affinity
